What was measured:
Test in all cases: Test D controlled growth environment herbicide test, pre- and postemergence
Format in all cases: in vivo
[1] = system: Russian thistle (Salsola kali)
Method in brief: (§1)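 Species sown in silt loam and sprayed preemergence, or grown in peat-based medium to 2–18 cm (1- to 4-leaf stage) and sprayed postemergence, with compounds in non-phytotoxic solvent plus surfactant. Visual injury scored versus controls after 14–21 d in a controlled environment, 0 (no effect) to 100 (complete control).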

[2] = system: barley, winter (winter barley, Hordeum vulgare)
Method in brief: as §1

[3] = system: bromegrass, downy (downy bromegrass, Bromus tectorum)
Method in brief: as §1

[4] = system: buckwheat, wild (wild buckwheat, Polygonum convolvulus)
Method in brief: as §1

[5] = system: canarygrass (Phalaris minor)
Method in brief: as §1

[6] = system: chickweed (common chickweed, Stellaria media)
Method in brief: as §1

[7] = system: field violet (Viola arvensis)
Method in brief: as §1

[8] = system: galium (catchweed bedstraw, Galium aparine)
Method in brief: as §1

kochia (Kochia scoparia) = system: kochia (Kochia scoparia)
Method in brief: as §1

[9] = system: oat, wild (wild oat, Avena fatua)
Method in brief: as §1

[10] = system: pigweed (Amaranthus retroflexus)
Method in brief: as §1

[11] = system: radish, wild (wild radish, Raphanus raphanistrum)
Method in brief: as §1

[12] = system: windgrass (Apera spica-venti)
Method in brief: as §1

[13] = Postemergence, 31 g ai/ha, scale 0 to 100 (0 no effect, 100 complete control)
[14] = Postemergence, 125 g ai/ha, visual rating on scale 0 (no effect) to 100 (complete control), 14 to 21 d
[15] = Postemergence, 250 g ai/ha, scale 0 to 100 (0 no effect, 100 complete control)
[16] = Preemergence, 125 g ai/ha, scale 0 to 100 (0 no effect, 100 complete control)
[17] = Preemergence, 250 g ai/ha, scale 0 to 100 (0 no effect, 100 complete control)
[18] = postemergence, 62 g ai/ha, scale 0 to 100, 0 no effect, 100 complete control
[19] = Preemergence, 62 g ai/ha, scale 0 to 100 (0 no effect, 100 complete control)

CC(=O)Oc1c(Br)nn(C)c(=O)c1-c1c(C)ccc2ccccc12 [Compound 129]
Russian Thistle plant response rating [1, 13]: 70 | Plant response rating, Russian Thistle [1, 14]: 85 | Plant response rating, Russian Thistle [1, 15]: 90 | Plant response rating (scale of 0 to 100), Russian Thistle ([1]; Preemergence, 31 g ai/ha): 10 | Plant response rating (scale of 0 to 100), Russian Thistle ([1]; Preemergence, 62 g ai/ha): 50 | Plant response rating, Russian Thistle [1, 16]: 100 | Plant response rating, Russian Thistle [1, 17]: 100 | Plant response rating, Russian Thistle [1, 18]: 80 | Barley, Winter plant response rating [2, 13]: 10 | Plant response rating, Barley, Winter [2, 14]: 30 | Plant response rating, Barley, Winter [2, 15]: 35 | Plant response rating (scale of 0 to 100), Barley, Winter ([2]; Preemergence, 31 g ai/ha): 0 | Plant response rating, Barley, Winter [2, 19]: 0 | Plant response rating, Barley, Winter [2, 16]: 0 | Plant response rating, Barley, Winter [2, 17]: 10 | Plant response rating, Barley, Winter [2, 18]: 20 | Bromegrass, Downy plant response rating [3, 13]: 25 | Plant response rating, Bromegrass, Downy [3, 14]: 65 | Plant response rating, Bromegrass, Downy [3, 15]: 80 | Plant response rating (scale of 0 to 100), Bromegrass, Downy ([3]; Preemergence, 31 g ai/ha): 15 | Plant response rating, Bromegrass, Downy [3, 19]: 15 | Plant response rating, Bromegrass, Downy [3, 16]: 65 | Plant response rating, Bromegrass, Downy [3, 17]: 80 | Plant response rating, Bromegrass, Downy [3, 18]: 40 | Buckwheat, Wild plant response rating [4, 13]: 100 | Plant response rating, Buckwheat, Wild [4, 14]: 100 | Plant response rating, Buckwheat, Wild [4, 15]: 100 | Plant response rating (scale of 0 to 100), Buckwheat, Wild ([4]; Preemergence, 31 g ai/ha): 0 | Plant response rating, Buckwheat, Wild [4, 19]: 30 | Plant response rating, Buckwheat, Wild [4, 16]: 85 | Plant response rating, Buckwheat, Wild [4, 17]: 85 | Plant response rating, Buckwheat, Wild [4, 18]: 100 | Canarygrass plant response rating [5, 13]: 30 | Plant response rating, Canarygrass [5, 14]: 75 | Plant response rating, Canarygrass [5, 15]: 80 | Plant response rating (scale of 0 to 100), Canarygrass ([5]; Preemergence, 31 g ai/ha): 5 | Plant response rating (scale of 0 to 100), Canarygrass ([5]; Preemergence, 62 g ai/ha): 15 | Plant response rating, Canarygrass [5, 16]: 60 | Plant response rating, Canarygrass [5, 17]: 90 | Plant response rating, Canarygrass [5, 18]: 55 | Chickweed plant response rating [6, 13]: 100 | Plant response rating, Chickweed [6, 14]: 100 | Plant response rating, Chickweed [6, 15]: 100 | Plant response rating (scale of 0 to 100), Chickweed ([6]; Preemergence, 31 g ai/ha): 98 | Plant response rating (scale of 0 to 100), Chickweed ([6]; Preemergence, 62 g ai/ha): 100 | Plant response rating, Chickweed [6, 16]: 98 | Plant response rating, Chickweed [6, 17]: 100 | Plant response rating, Chickweed [6, 18]: 100 | Field Violet plant response rating [7, 13]: 65 | Plant response rating, Field Violet [7, 14]: 70 | Plant response rating, Field Violet [7, 15]: 75 | Plant response rating (scale of 0 to 100), Field Violet ([7]; Preemergence, 31 g ai/ha): 85 | Plant response rating (scale of 0 to 100), Field Violet ([7]; Preemergence, 62 g ai/ha): 85 | Plant response rating, Field Violet [7, 16]: 85 | Plant response rating, Field Violet [7, 17]: 100 | Plant response rating, Field Violet [7, 18]: 70 | Galium plant response rating [8, 13]: 90 | Plant response rating, Galium [8, 14]: 100 | Plant response rating, Galium [8, 15]: 100 | Plant response rating (scale of 0 to 100), Galium ([8]; Preemergence, 31 g ai/ha): 75 | Plant response rating (scale of 0 to 100), Galium ([8]; Preemergence, 62 g ai/ha): 90 | Plant response rating, Galium [8, 16]: 90 | Plant response rating, Galium [8, 17]: 95 | Plant response rating, Galium [8, 18]: 100 | Kochia plant response rating (kochia (Kochia scoparia); [13]): 60 | Plant response rating, Kochia (kochia (Kochia scoparia); [14]): 80 | Plant response rating, Kochia (kochia (Kochia scoparia); [15]): 85 | Plant response rating (scale of 0 to 100), Kochia (kochia (Kochia scoparia); Preemergence, 31 g ai/ha): 5 | Plant response rating (scale of 0 to 100), Kochia (kochia (Kochia scoparia); Preemergence, 62 g ai/ha): 55 | Plant response rating, Kochia (kochia (Kochia scoparia); [16]): 85 | Plant response rating, Kochia (kochia (Kochia scoparia); [17]): 100 | Plant response rating, Kochia (kochia (Kochia scoparia); [18]): 70 | Oat, Wild plant response rating [9, 13]: 90 | Plant response rating, Oat, Wild [9, 14]: 95 | Plant response rating, Oat, Wild [9, 15]: 100 | Plant response rating (scale of 0 to 100), Oat, Wild ([9]; Preemergence, 31 g ai/ha): 75 | Plant response rating (scale of 0 to 100), Oat, Wild ([9]; Preemergence, 62 g ai/ha): 75 | Plant response rating, Oat, Wild [9, 16]: 90 | Plant response rating, Oat, Wild [9, 17]: 100 | Plant response rating, Oat, Wild [9, 18]: 90 | Pigweed plant response rating [10, 13]: 98 | Plant response rating, Pigweed [10, 14]: 100 | Plant response rating, Pigweed [10, 15]: 100 | Plant response rating (scale of 0 to 100), Pigweed ([10]; Preemergence, 31 g ai/ha): 100 | Plant response rating (scale of 0 to 100), Pigweed ([10]; Preemergence, 62 g ai/ha): 100 | Plant response rating, Pigweed [10, 16]: 100 | Plant response rating, Pigweed [10, 17]: 98 | Plant response rating, Pigweed [10, 18]: 98 | Radish, Wild plant response rating [11, 13]: 60 | Plant response rating, Radish, Wild [11, 14]: 80 | Plant response rating, Radish, Wild [11, 15]: 98 | Plant response rating (scale of 0 to 100), Radish, Wild ([11]; Preemergence, 31 g ai/ha): 80 | Plant response rating (scale of 0 to 100), Radish, Wild ([11]; Preemergence, 62 g ai/ha): 100 | Plant response rating, Radish, Wild [11, 16]: 100 | Plant response rating, Radish, Wild [11, 17]: 100 | Plant response rating, Radish, Wild [11, 18]: 75 | Windgrass plant response rating [12, 13]: 20 | Plant response rating, Windgrass [12, 14]: 55 | Plant response rating, Windgrass [12, 15]: 90 | Plant response rating (scale of 0 to 100), Windgrass ([12]; Preemergence, 31 g ai/ha): 35 | Plant response rating (scale of 0 to 100), Windgrass ([12]; Preemergence, 62 g ai/ha): 45 | Plant response rating, Windgrass [12, 16]: 75 | Plant response rating, Windgrass [12, 17]: 80 | Plant response rating, Windgrass [12, 18]: 35

— patent US10597388B2, “Pyridazinone herbicides” (FMC CORPORATION, priority 2014, dated 2020)
